Structures can show the parent of a compound that is named as a salt.
Key:
[1] = biological target: Pure BAO obtained from swine plasma; experiment: Inhibition of benzylaminoxidase (BAO), isotopic procedure with 14C-benzylamine; type: biochemical; details: for IC50: 30 minutes pre-incubation, 14C-benzylamine 1,7 mM (saturating), mean ± s.e.; for Activity as inhibitors of BAO (in words): compounds already known in the literature, prepared again
Protocol: The quantitative determination of benzylaminoxidases (BAO's) is carried out by the isotopic procedure disclosed by F. Buffoni and G. Ignesti (Biochem. J.; 145, 369 (1975)) employing ^14 C-benzylamine as the substrate at the final concentration of 1,7 mM.
(§1) Pure BAO obtained from swine plasma by the procedure disclosed by F. Buffoni and H. Blaschko (Proc. Roy. Soc. B 161, 153 (1964)); DAO from swine kidney, as obtained and purified by the Sigma (St. Louis, Md., USA, 0.25 U/mg); purified LAO from swine aorta obtained by the procedure disclosed by F. Buffoni and L. Raimondi (Agents and Actions, 11, 38 (1981)). Rat liver mitochondria obtained by the procedure disclosed by G. W. Schneider and G. H. Hogeboon (J. Biol. Chem., 183, 123 (1950)) were employed as the source of MAO.
(§2) IC50 (M)=The molar concentration of the inhibitor that inhibits 50% of the enzyme activity at a saturating concentration of the substrate. Said concentration is calculated from curves obtained by pre-incubation of the compound for 30 minutes (at 6 different concentrations) with the enzyme before adding the substrate and determining the enzymic rate.
(§3) The repetition of the experiments allows to obtain the average values of the IC50 (M) as well as the relative standard errors.

DAO from swine kidney [2] = biological target: T1, DAO from swine kidney (Sus scrofa, UniProt Q9TRC7); experiment: Inhibition of diaminoxidase (DAO), isotopic method with 14C-putrescine; type: biochemical; details: 30 minutes pre-incubation; 14C-putrescine 1 mM; mean ± s.e.
T1 construct: DAO from swine kidney, as obtained and purified by the Sigma; purchased Sigma (St. Louis); host or cells: swine kidney
T1 sequence (Q9TRC7 25-755): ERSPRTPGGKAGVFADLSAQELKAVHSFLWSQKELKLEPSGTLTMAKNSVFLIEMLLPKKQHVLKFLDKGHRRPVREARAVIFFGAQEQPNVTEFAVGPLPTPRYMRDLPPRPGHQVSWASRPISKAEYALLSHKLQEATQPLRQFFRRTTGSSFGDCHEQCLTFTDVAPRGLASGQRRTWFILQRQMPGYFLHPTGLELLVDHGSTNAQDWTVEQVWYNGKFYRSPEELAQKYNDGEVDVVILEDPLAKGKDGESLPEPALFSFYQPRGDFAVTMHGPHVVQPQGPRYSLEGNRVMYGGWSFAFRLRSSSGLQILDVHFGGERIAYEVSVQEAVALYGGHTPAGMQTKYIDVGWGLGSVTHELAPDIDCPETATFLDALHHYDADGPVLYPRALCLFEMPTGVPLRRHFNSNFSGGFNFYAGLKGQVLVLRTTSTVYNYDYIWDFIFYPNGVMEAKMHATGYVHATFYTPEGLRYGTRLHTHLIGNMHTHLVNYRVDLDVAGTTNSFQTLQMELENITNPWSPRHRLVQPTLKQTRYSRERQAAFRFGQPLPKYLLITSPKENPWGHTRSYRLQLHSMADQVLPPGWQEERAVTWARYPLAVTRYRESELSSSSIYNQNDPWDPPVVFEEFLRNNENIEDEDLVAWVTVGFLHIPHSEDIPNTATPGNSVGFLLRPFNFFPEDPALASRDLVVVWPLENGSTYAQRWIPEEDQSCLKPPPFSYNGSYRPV
Protocol: The quantitative determination of the diaminoxidases (DAO's) is performed by the isotopic method disclosed by J. Kusche, H. Richter, R. Hesterberg, J. Schmidt, W. Lorenz, (Agents and Actions, 3, 148-156 (1973)) employing ^14 C-putrescine as the substrate at the final concentration of 1 mM.
as §1, §2, §3

[3] = test system: MAO (rat liver mitochondria); experiment: Inhibition of monoaminoxidases (MAO), isotopic procedure with 14C-beta-phenylethylamine; type: biochemical; details: 30 minutes pre-incubation; 14C-beta-phenylethylamine 1.7 mM; mean ± s.e.
Protocol: The quantitative determination of monoaminoxidases (MAO's) is carried out by the same procedure as the determination of BAO's, but ^14 C-beta-phenylethylamine is employed at the final concentration of 1.7 mM.
as §1, §2, §3

[4] = test system: Pure BAO obtained from swine plasma; experiment: Compound as the substrate of BAO (production of H2O2); type: biochemical; set-up: key: the compound is the substrate; ns: the compound is not the substrate; details: 37° C., air
Protocol: (§4) The oxidation of the compound is estimated in all cases by measuring the production of H2 O2. Such operation is carried out within a temperature-controlled bath set at 37° C. and stirred, in the presence of air. The production-of H2 O2 is quantitatively determined by the method of H. P. Lehman, K. H. Schosinsky, M. F. Beeler (Clin. Chem., 20, 1564 (1974)).
as §1

DAO from swine kidney [5] = biological target: T1, DAO from swine kidney; experiment: Compound as the substrate of DAO (production of H2O2); type: biochemical; set-up: key: the compound is the substrate; ns: the compound is not the substrate; details: 37° C., air
Protocol: as §4, §1

[6] = test system: MAO (rat liver mitochondria); experiment: Compound as the substrate of MAO (production of H2O2); type: biochemical; set-up: key: the compound is the substrate; ns: the compound is not the substrate; details: 37° C., air
Protocol: as §4, §1

[7] = test system: Pure BAO obtained from swine plasma; experiment: Reversibility of BAO inhibition by dialysis; type: biochemical; set-up: key: reversible inhibition; irreversible inhibition; pr: partially reversible inhibition; details: dialysis of the solution
From the text: as §1
The reversibility of the effect was evaluated showing that the inhibition caused by a certain concentration of the inhibitor (for instance the IC50 value) would be reverted by dialysis of the solution.

[8] = test system: Pure BAO obtained from swine plasma; experiment: Inhibition type on BAO (Lineweaver-Burk); type: biochemical; set-up: key: competitive inhibition; nc: not competitive inhibition; mixed inhibition; details: 1/v vs. 1/s, 5 substrate concentrations
From the text: as §1
The inhibition type was evaluated by studying the effect of the compound on the enzymic rate (v) at 5 different concentrations of the substrate (s) and plotting the results by the classical procedure as 1/v vs. 1/s according to Lineweaver-Burk.

[9] = biological target: T2, purified LAO from swine aorta (Sus scrofa, UniProt P45845); experiment: Inhibition of lysyloxidase (LAO), isotopic procedure with 3H-elastine; type: biochemical; details: 30 minutes pre-incubation; 3H-elastine 0.150 mg/ml
T2 construct: purified LAO from swine aorta; from tissue; host or cells: swine aorta, purified by the procedure of Buffoni and Raimondi (1981)
T2 sequence (P45845 1-249): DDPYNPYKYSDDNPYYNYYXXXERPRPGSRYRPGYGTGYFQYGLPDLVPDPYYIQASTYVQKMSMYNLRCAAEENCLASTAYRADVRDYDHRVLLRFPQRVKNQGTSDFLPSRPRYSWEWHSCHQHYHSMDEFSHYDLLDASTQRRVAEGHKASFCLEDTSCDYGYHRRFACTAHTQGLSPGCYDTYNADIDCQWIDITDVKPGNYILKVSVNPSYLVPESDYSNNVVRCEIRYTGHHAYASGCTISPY
Protocol: The quantitative determination of lysyloxidase (LAO) is carried out by the isotopic procedure of […]. Biochem., 77, 141 (1977)) employing as the substrate ^3 […] prepared as disclosed by […], and G. R. Martin (Proc. Natl. Acad. Sci. USA 61, 708 (1968)) and isolated as disclosed by […]. Smith (Biochemistry, 8, 2940 (1969)). […] Pure BAO obtained from swine plasma by the procedure disclosed by F. Buffoni and H. Blaschko (Proc. Roy. Soc. B 161, 153 (1964)); DAO from swine kidney, as obtained and purified by the Sigma (St. Louis, Md., USA, 0.25 U/mg); purified LAO from swine aorta obtained by the procedure disclosed by F. Buffoni and L. Raimondi (Agents and Actions, 11, 38 (1981)). Rat liver mitochondria obtained by the procedure disclosed by G. W. Schneider and […]. Biol. Chem., 183, 123 (1950)) were employed as the source of MAO. IC50 (M)=The molar concentration of the inhibitor that inhibits 50% of the enzyme activity at a saturating concentration of the substrate. Said concentration is calculated from curves obtained by pre-incubation of the compound for 30 minutes (at 6 different concentrations) with the enzyme before adding the substrate and determining the enzymic rate. The repetition of the experiments allows to obtain the average values of the IC50 (M) as well as the relative standard errors.

BAO's = details: background statement, cited from earlier work

| SMILES | IC50 [1] | IC50 (DAO from swine kidney [2]) | IC50 [3] | BAO: compound as the substrate [4] | DAO: compound as the substrate (DAO from swine kidney [5]) | MAO: compound as the substrate [6] | BAO: reversibility of the inhibition [7] | BAO: inhibition type [8] | Activity as inhibitors of BAO (in words) [1] | IC50 [9] | IC50 (BAO's; read-out: I50 on BAO's) | Kind of inhibition of BAO's (BAO's; high concentrations) |
| --- | --- | --- | --- | --- | --- | --- | --- | --- | --- | --- | --- | --- |
| CCOc1cccc(OCC)c1CN.Cl [Example 1, 2,6-diethoxybenzylamine hydrochloride] | 0.18 µM | 12500 ± 1 µM | 6400 ± 0.5 µM | ns | s | ns | pr | m |  |  |  |  |
| CCCOc1cccc(OCCC)c1CN.Cl [Example 2, 2,6-di(n-propoxy)benzylamine hydrochloride] |  |  | > 1000 µM | ns | s weak | s | pr | m |  |  |  |  |
| CC(C)Oc1cccc(OC(C)C)c1CN.Cl [Example 3, 2,6-diisopropoxybenzylamine hydrochloride] | > 1000 µM |  | > 1000 µM | s weak | s weak | s weak |  |  |  |  |  |  |
| CCCCOc1cccc(OCCCC)c1CN.Cl [Example 4, 2,6-di(n-butoxy)benzylamine hydrochloride] | 0.14 µM |  | > 1000 µM | ns | s | ns | pr | nc |  |  |  |  |
| Cl.NCc1ccccc1O [Example 5, 2-hydroxybenzylamine hydrochloride] | 1000 µM | 1000 µM | > 1000 µM | s | s | ns |  |  | active indeed, though at a low degree |  |  |  |
| Cl.NCc1ccccc1CO [Example 6, 2-hydroxymethylbenzylamine hydrochloride] | 1000 µM |  | > 1000 µM | s | s | ns |  |  | active indeed, though at a low degree |  |  |  |
| COc1cccc(OC)c1CN.Cl [Example 7, 2,6-di-methoxybenzylamine hydrochloride] | 120 µM | 5600 ± 0.3 µM | 190 µM | ns | s | s weak | r | m | active indeed, though at a low degree |  |  |  |
| NCc1c(O)cccc1O [Example 8, 2,6-dihydroxybenzylamine hydrochloride] | 1000 µM |  | > 1000 µM |  |  |  |  |  |  |  |  |  |
| COCOc1cccc(OCOC)c1CN.Cl [Example 9, 2,6-bis(methoxymethoxy)benzylamine hydrochloride] | 0.95 µM | > 10000 µM | 22000 ± 60 µM | s | s | ns | r | m |  | > 1000 µM |  |  |
| COCc1cccc(COC)c1CN.Cl [Example 10, 2,6-bis(methoxymethyl)benzylamine hydrochloride] |  |  | > 1000 µM | ns | s | ns | pr | m |  |  |  |  |
| CCc1cccc(CC)c1CN.Cl [Example 11, 2,6-diethylbenzylamine hydrochloride] |  |  | > 1000 µM | ns | s | s | r | nc |  |  |  |  |
| CCCc1cccc(CCC)c1CN.Cl [Example 12, 2,6-di-n-propylbenzylamine hydrochloride] |  | 1000 µM | 1000 µM | ns | s weak | s | r | nc |  | 1000 µM |  |  |
| Cl.NCc1c(OCCO)cccc1OCCO [Example 13, 2,6-bis(hydroxyethoxy)benzylamine hydrochloride] | 2.6 µM |  | > 1000 µM | ns | s | ns | pr | m |  |  |  |  |
| N#CCCN [beta-aminopropionitrile] |  |  |  |  |  |  |  |  |  |  | > 10000 µM | irreversibly |
